In ChEMBL document CHEMBL1121588, “Studies on anticoccidial agents. 13. Synthesis and anticoccidial activity of nitropyridine-2- and -3-sulfonamides and derivatives” (1980):

Each molecule was assayed on Eimeria tenella (assay: Anticoccidial activity against Eimeria tenella using amprolium resistant strain at a concentration of 0.00175% drug in feed).
Format: functional

SMILES | Activity
NS(=O)(=O)c1cncc([N+](=O)[O-])c1 | 158

The molecules below were run on Eimeria tenella (assay: Anticoccidial activity against Eimeria tenella using amprolium resistant strain at a concentration of 0.007% drug in feed).
Format: functional

SMILES | Activity
NC(=O)c1cncc([N+](=O)[O-])c1 | 186
NS(=O)(=O)c1cncc([N+](=O)[O-])c1 | 195

What follows are molecules tested on Eimeria tenella (assay: Anticoccidial activity against Eimeria tenella using amprolium resistant strain at a concentration of 0.015% drug in feed).
Format: functional

SMILES | Activity
NC(=O)c1cncc([N+](=O)[O-])c1 | 198
NS(=O)(=O)c1ccc[n+]([O-])c1 | 160
NS(=O)(=O)c1cnccc1[N+](=O)[O-] | 144
NS(=O)(=O)c1cccnc1[N+](=O)[O-] | 144
CNS(=O)(=O)c1cncc([N+](=O)[O-])c1 | 195
CCOCCNS(=O)(=O)c1cncc([N+](=O)[O-])c1 | 192
O=[N+]([O-])c1cncc(S(=O)(=O)NCCO)c1 | 120
CCCCN(CC)S(=O)(=O)c1cncc([N+](=O)[O-])c1 | 175
CCCCCCCC(=O)NS(=O)(=O)c1cncc([N+](=O)[O-])c1 | 187
NS(=O)(=O)c1cccc[n+]1[O-] | 183
CCNS(=O)(=O)c1cncc([N+](=O)[O-])c1 | 190
NS(=O)(=O)c1cc[n+]([O-])cc1 | 120
NS(=O)(=O)c1cncc([N+](=O)[O-])c1 | 194
CC(=O)NS(=O)(=O)c1cncc([N+](=O)[O-])c1 | 186
CC(C)(C)C(=O)NS(=O)(=O)c1cncc([N+](=O)[O-])c1 | 122
CCCc1ncc(C[n+]2ccccc2C)c(N)n1.[Cl-] | 95
NS(=O)(=O)c1cc([N+](=O)[O-])ccn1 | 107
CCOCCN(CC)S(=O)(=O)c1cncc([N+](=O)[O-])c1 | 178
NS(=O)(=O)c1ccc([N+](=O)[O-])cn1 | 32
NS(=O)(=O)c1cccc([N+](=O)[O-])n1 | 120
NS(=O)(=O)c1ccc([N+](=O)[O-])nc1 | 120
CC(C)OCCCNS(=O)(=O)c1cncc([N+](=O)[O-])c1 | 193
CN(C)S(=O)(=O)c1cncc([N+](=O)[O-])c1 | 175
O=[N+]([O-])c1cncc(S(=O)(=O)NCc2ccccc2)c1 | 168
O=[N+]([O-])c1cncc(S(=O)(=O)Nc2ccccc2)c1 | 86
NS(=O)(=O)c1ncccc1[N+](=O)[O-] | 55
CCCCCCCCNS(=O)(=O)c1cncc([N+](=O)[O-])c1 | 126

Each molecule was assayed on Eimeria tenella (assay: Anticoccidial activity against Eimeria tenella using amprolium resistant strain at a concentration of 0.0035% drug in feed).
Format: functional

SMILES | Activity
NC(=O)c1cncc([N+](=O)[O-])c1 | 158
NS(=O)(=O)c1cncc([N+](=O)[O-])c1 | 194
